The values that follow are results of earlier work, collected in patent publication US20110244057A1, “COMBINATION THERAPIES WITH TOPIRAMATE FOR SEIZURES, RESTLESS LEGS SYNDROME, AND OTHER NEUROLOGICAL CONDITIONS” (priority 2008, published 2011).

For series [1] the following is noted: doses of 100 mg/day and 200 mg/day; Romigi et al., J. Neurology, 2007.
A further series deals with kindled seizures. The following applies: rats; Wauquier and Zhou, Epilepsy Res. 24:73-77, 1996.

Structures are written as SMILES.

In the case of `CC1(C)O[C@@H]2[C@@H](CO[C@@]3(COS(N)(=O)=O)OC(C)(C)O[C@@H]23)O1` [topiramate, 2,3:4,5-bis-O-(1-methylethyldiene)-β-D-fructopyranose sulfamate], the “induction of Restless Leg Syndrome (RLS)” value in series [1] is given as “cause RLS”. In the series on kindled seizures, the “effect on kindled seizures” value is “blocks kindled seizures”.
